# Laboratory results from patent US10286000B2, “Retinoid X receptor-gamma agonists and retinoid X receptor-alpha antagonists for treatment of cancer” (St. Jude Children's Research Hospital, Inc., priority 2013, dated 2019).
# “Also recorded” adds a separate entry of the source.
# Legend:
# [1] = test system: NKG2DL (MICA-B, ULBP1-3) surface expression; assay: flow cytometry of NKG2DL cell surface expression in cancer cell lines; type: cell-based, human; conditions: for NKG2DL expression, compound alone: HCT116 cells, 3 days; for effect of co-treatment on SPIR's upregulation of NKG2DLs: HCT116, SPIR 56 μM 3 days, HX531 10 μM, caffeine 1.5 mM, wortmannin 10 μM, KU55933 10 μM, VE-821 10 μM
# Method: Data are representative of five independent experiments. […] Controls were stained with APC-conjugated anti-human Fc antibody alone without preincubation with NKG2D-Fc. Data are representative of three independent experiments. […] Results are representative of two independent experiments. […] (E) NKG2DL mRNA expression in the colon cancer cell lines was analyzed by qRT-PCR analysis. Data are normalized to GAPDH mRNA levels and are presented as fold-change relative to the expression in DMSO-treated cells (n=5). (F) Lentiviral-based luciferase reporter construct containing the putative ULBP2 promoter (−2415 to 0 bp from the transcription start site: 73 bp upstream of ATG) was transduced into the colon cancer cell lines. Positively transduced cells were selected by puromycin treatment (2 μg/ml) for 2 weeks. […] Data shown are expressed as fold-change relative to the luciferase activity observed in DMSO-treated cells (n=3). * P<0.05, ** P<0.01.
# (§1) Cell lines were stained with allophycocyanin-conjugated anti-MICA, anti-MICB, or anti-ULBP2 antibodies for 20 min at 4° C. For ULBP1 and ULBP3 staining, cells were first incubated with anti-ULBP1 and anti-ULBP3 antibodies and then with allophycocyanin-conjugated goat anti-mouse IgG antibody. To analyze total NKG2DL cell surface expression, cells were first incubated with human NKG2D-Fc for 20 min at 4° C. and then with allophycocyanin-conjugated mouse anti-human IgG (Fc) antibody. Cells were washed and analyzed on a C6 flow cytometer (Accuri). Data were analyzed using FlowJo software (TreeStar).
# TIMP2 and TIMP3 = assay: qRT-PCR of TIMP2 and TIMP3 mRNA; type: cell-based, human; conditions: HCT116 cells, 3 days
# Method: (§2) The number of cells that invaded the ECM was determined after 24 h. Data are expressed as percentage change in tumor invasion relative to that of DMSO-treated cells (n=3). (D) Wound healing by DMSO- and SPIR-treated HCT116, HT29, and CAL27 cells was compared. Data are calculated as the percentage change in distance of migration relative to that of DMSO-treated cells (n=3). […] Tumor xenografts and lung metastases were detected by bioluminescence imaging on day 25. Data are shown as the average total flux (photons/second)±standard deviation (n=8). (F) The lung metastases (arrows) were confirmed by examining lung tissue sections. * P≤0.05, ** P<0.01, *** P<0.005, **** P<0.0001.
# For qRT-PCR, total RNA was extracted from untreated or drug-treated tumor cells by using the RNA Clean & Concentrator (Zymo Research). All cDNA was generated by using the SuperScript VILO cDNA Synthesis kit (Life Technologies) and diluted 10-fold for analysis using the 7900HT Fast Real-time PCR System (Applied Biosystems). The data were calculated as the CT of target genes normalized to the CT of GAPDH of each sample. Primer sequences of the target genes were: MICA-F: 5′-[…]-3′, (SEQ ID NO: 14) MICA-R: 5′-[…]-[…]-3′, (SEQ ID NO: 15) MICB-F: 5′-[…]-3′, (SEQ ID NO: 16) MICB-R:5′-CCCTC-[…]-3′, (SEQ ID NO: 17), ULBP1-F:5′-[…]-3′, (SEQ ID NO: 18), ULBP1-R:5′-[…]-3′, (SEQ ID NO: 19), ULBP2-F:5′-[…]-3′, (SEQ ID NO: 20), ULBP2-R:5′-[…]-3′, (SEQ ID NO: 21), ULBP3-F:5′-[…]-TTCG-3′, (SEQ ID NO: 22), ULBP3-R:[…]-3′, (SEQ ID NO: 23), TIMP2-F:5′-[…]-[…]-3′, (SEQ ID NO: 24), TIMP2-R:[…]-3′, (SEQ ID NO: 25), TIMP3-F:5′-[…]-3′, (SEQ ID NO: 26), TIMP3-R:5′-[…]-[…]-3′ (SEQ ID NO: 27), GAPDH-F: 5′-[…]3′ (SEQ ID NO: 28), GAPDH-R: 5′-G-[…]-3′ (SEQ ID NO: 29). […] Differentially expressed transcripts were analyzed by ANOVA on Spotfire program.
# [2] = test system: HCT116, HT29, and CAL27 cells; assay: in vitro cell invasion assay (ECM-coated Transwell); type: cell-based, human; conditions: HCT116 cells
# Method: as §2
# The invasiveness of the tumor cells was determined by using the CytoSelect 96-well Cell Invasion Assay with Basement Membrane (Cell Biolabs) according to the manufacturer instructions.
# [3] = test system: HCT116, HT29, and CAL27 cells; assay: wound-healing assay; type: cell-based, human; conditions: HCT116 cells
# Method: as §2
# Confluent cell layers of CAL27 and HT29 cells with a 500 μm±50 μm gap were formed by using Ibidi culture inserts (RPI Corp.). Gap distances were measured at various times using a Nikon Eclipse Ti inverted microscope and NIS-Elements software (Nikon).
# 47 NHRs in HCT116 cells = assay: human nuclear hormone receptor siRNA library / siRNA knockdown, NKG2DL expression by NKG2D-Fc staining; type: cell-based
# Method: as §1
# For the transfection study, 2×10^5 cells were transfected with 60 pmol of siRNA molecules using lipofectamine RNAiMAX according to the manufacturer's instructions (Invitrogen).
# Consistent with previous reports, RXR-gamma was constitutively expressed in HCT116 cells (FIG. 5C) (Papi et al. 2010. Cancer Lett 297:65-74). Expression of RXR-gamma mRNA was also observed in all other cell lines tested. (FIG. 5D).
molecule,measurement,setting,value
COC(=O)[C@@H]1CC2=CC(=O)CC[C@]2(C)[C@@]23O[C@@H]2C[C@@]2(C)[C@@H](CC[C@@]24CCC(=O)O4)[C@H]13 [eplerenone],"NKG2DL expression, compound alone",[1],did not reproduce the phenotypes of enhanced expression of NKG2DL
same,TIMP2 expression,TIMP2 and TIMP3,neither canrenone nor eplerenone upregulated TIMP2 expression
same,"cell invasion, MR antagonists vs SPIR",[2],did not reproduce the suppressive effect of SPIR
same,"cell migration, MR antagonists vs SPIR",[3],did not reproduce the suppressive effect of SPIR
CN1c2ccc([N+](=O)[O-])cc2N=C(c2ccc(C(=O)O)cc2)c2cc3c(cc21)C(C)(C)CCC3(C)C [HX531],effect of co-treatment on SPIR's upregulation of NKG2DLs,[1],significantly reduced
CS(=O)(=O)c1ccc(-c2cnc(N)c(C(=O)Nc3ccccc3)n2)cc1 [VE-821],effect of co-treatment on SPIR's upregulation of NKG2DLs,[1],only partially reduced
same,effect of co-treatment on NKG2DL expression at increased concentration,"[1]; HCT116, SPIR 56 μM, VE-821 20 μM",did not further affect NKG2DL expression
"CC1=C(/C=C/C(C)=C\C=C\C(C)=C\C(=O)O)C(C)(C)CCC1 [9-cis-RA, 9-cis-retinoic acid]","NKG2DL expression, compound alone",[1],did not induce the upregulation of NKG2DL expression; also recorded: decrease was observed
O=c1cc(-c2cccc3c2Sc2ccccc2S3)oc(N2CCOCC2)c1 [KU55933],effect of co-treatment on SPIR's upregulation of NKG2DLs,[1],completely abolished
C[C@]12CCC(=O)C=C1C=C[C@@H]1[C@@H]2CC[C@@]2(C)[C@H]1CC[C@@]21CCC(=O)O1 [canrenone],"NKG2DL expression, compound alone",[1],did not reproduce the phenotypes of enhanced expression of NKG2DL
same,TIMP2 expression,TIMP2 and TIMP3,neither canrenone nor eplerenone upregulated TIMP2 expression
same,"cell invasion, MR antagonists vs SPIR",[2],did not reproduce the suppressive effect of SPIR
same,"cell migration, MR antagonists vs SPIR",[3],did not reproduce the suppressive effect of SPIR
Cn1c(=O)c2c(ncn2C)n(C)c1=O [caffeine],effect of co-treatment on SPIR's upregulation of NKG2DLs,[1],completely abolished
"RXR-alpha siRNA: siRNA targeting RXR-alpha, ThermoScientific Cat No. D-003443-06; GGGAGAAGGUCUAUGCGUC (listed as RNA, chemistry not given here)",NKG2DL expression after gene knockdown without drug treatment,47 NHRs in HCT116 cells,enhances the expression of NKG2DLs; also recorded: increase of NKG2DL expression
same,SPIR-mediated NKG2DL upregulation after siRNA knockdown,47 NHRs in HCT116 cells,did not affect the potential of SPIR in upregulating NKG2DL expression
